Converted amounts (≈) assume the structure as drawn.
Assays:
P. aeruginosa UI-18 = experiment: MIC determination, P. aeruginosa UI-18; format: cell-based; conditions: Pseudomonas aeruginosa, UI18; wild-type; * = arithmetic mean of 2-6 MIC determinations; read-out: MIC (ug/mL) P. aeruginosa UI-18
Description: (§1) MIC determinations: The in vitro antibacterial activity of compounds described in the Examples was evaluated by minimum inhibitory concentration (MIC) testing according to Clinical and Laboratory Standards Institute (CLSI, formerly NCCLS) guidelines. See: Clinical and Laboratory Standards Institute. Methods for Dilution Antimicrobial Susceptibility Tests for Bacteria that Grow Aerobically; Approved Standard-Seventh Edition. CLSI document M7-A7 [ISBN 1-56238-587-9]. Clinical and Laboratory Standards Institute, 940 West Valley Road, Suite 1400, Wayne, Pa. 19087-1898 USA, 2006; also Clinical and Laboratory Standards Institute. Performance Standards for Antimicrobial Susceptibility Testing; Eighteenth Informational Supplement. CLSI document M100-S18 [ISBN1-56238-653-0]. Clinical and Laboratory Standards Institute.
(§2) The following bacterial strains were used:
P. aeruginosa UI-18: Wild-type;

P. aeruginosa PAO280 = experiment: MIC determination, P. aeruginosa PAO280; format: cell-based; conditions: Pseudomonas aeruginosa, PAO280, read-out: MIC (ug/mL) P. aeruginosa PAO280
Description: as §1, §2
Pseudomonas aeruginosa PA0280: lacks efflux pumps MexAB-oprM, MexXY and MexZ

Escherichia coli EC-1 = experiment: MIC determination, E. coli EC-1; format: cell-based; conditions: EC1, EC-1: VOGEL, * = arithmetic mean of 2-6 MIC determinations, read-out: MIC (ug/mL) E. coli EC-1
Description: as §1, §2
Escherichia coli EC-1: VOGEL;

[1] = tested on: Acinetobacter baumanii/haemolyticus; experiment: MIC determination, A. baumanii/haemolyticus; format: cell-based; conditions: Acinetobacter baumannii; multidrug-resistant clinical isolate; * = arithmetic mean of 2-6 MIC determinations; read-out: MIC (ug/mL) A. baumanii/haemolyticus
Description: as §1, §2
Acinetobacter baumanii/haemolyticus: Multidrug-resistant clinical isolate;

[2] = tested on: Staphylococcus aureus ATCC 29213; experiment: MIC determination, S. aureus ATCC 29213; format: cell-based; conditions: ATCC29213, CLSI quality control reference strain, * = arithmetic mean of 2-6 MIC determinations, read-out: MIC (ug/mL) S. aureus ATCC 29213
Description: as §1, §2
Staphylococcus aureus ATCC 29213: CLSI quality control reference strain; and […]

Klebsiella pneumoniae = experiment: MIC determination, K. pneumoniae; format: cell-based; conditions: ciprofloxacin-resistant, ESBL-expressing clinical isolate, * = arithmetic mean of 2-6 MIC determinations, read-out: MIC (ug/mL) K. pneumoniae
Description: as §1, §2
Klebsiella pneumoniae: Ciprofloxacin-resistant isolate, expresses extended-spectrum beta-lactamases (ESBL), clinical isolate;

[3] = target: T1, Pseudomonas aeruginosa LpxC enzyme (Pseudomonas aeruginosa, UniProt P47205); experiment: IC50 assay, LpxC enzyme from P. aeruginosa; format: biochemical; conditions: 0.5 nM enzyme, 25° C., pH 8.0, 20 min; ** = average of 2-8 assays
T1 construct: made in house; host or cells: E. coli
T1 sequence (P47205 1-303): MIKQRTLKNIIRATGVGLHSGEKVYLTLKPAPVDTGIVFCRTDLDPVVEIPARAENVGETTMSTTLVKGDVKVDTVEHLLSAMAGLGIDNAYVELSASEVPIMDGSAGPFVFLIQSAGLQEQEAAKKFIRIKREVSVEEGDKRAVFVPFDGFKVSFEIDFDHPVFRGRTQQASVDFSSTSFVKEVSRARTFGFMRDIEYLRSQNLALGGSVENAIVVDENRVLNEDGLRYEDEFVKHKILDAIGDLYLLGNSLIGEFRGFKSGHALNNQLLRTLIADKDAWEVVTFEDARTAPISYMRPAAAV
Description: IC50 assay, LpxC enzyme from P. aeruginosa: IC50 determination in the LpxC enzyme assay was carried out in a similar manner to that described by S. A. Hyland et al., J. Bacteriology 1997, 179, 2029-2037. [See also T. Kline et al., J. Medicinal Chemistry 2002, 45, 3112-3129.] Briefly, Pseudomonas aeruginosa LpxC enzyme (0.5 nM) purified from E. coli-overexpressing bacteria was incubated at 25° C. in a final volume of 25 ul containing 0.5 uM UDP-3-O—(R-3-hydroxydecanoyl)-N—[^3H-acetyl]glucosamine (B. D. Maxwell and J. C. Bronstein, J. Labeled Compounds and Radiopharmaceuticals 2005, 48, 1049-1054), 1 mg/ml BSA, and 50 mM sodium phosphate buffer, pH 8.0 in the presence and absence of inhibitor compound. At the end of 20 min, 90 ul of a pre-mixed 3% suspension of activated charcoal in 100 mM sodium acetate, pH 7.5, was added to stop the enzyme reaction. The contents of the well were transferred to a filter plate and filtered, and an aliquot of the filtrate was quantitated by liquid scintillation spectrometry. A no-enzyme control was subtracted in order to eliminate background counts.

Enterobacter aerogenes = experiment: MIC determination, E. aerogenes; format: cell-based; conditions: Klebsiella aerogenes; quinolone-resistant, ESBL-expressing clinical isolate; * = arithmetic mean of 2-6 MIC determinations; read-out: MIC (ug/mL) E. aerogenes
Description: as §1, §2
Enterobacter aerogenes: Quinolone-resistant isolate, expresses extended-spectrum beta-lactamases (ESBL), clinical isolate;

**Q.** Which results are given for `Cc1ccc(-c2ccc(CO[C@](C)(C(=O)NO)[C@@H](O)c3cc(C)on3)cc2)nc1` [Example 32, (2S,3S)-N,3-dihydroxy-2-methyl-3-(5-methylisoxazol-3-yl)-2-{[4-(5-methylpyridin-2-yl)benzyl]oxy}propanamide]?
**A.** MIC (P. aeruginosa UI-18): 8 µg/mL (≈ 20.1 µM); MIC (P. aeruginosa PAO280): 0.06 µg/mL (≈ 0.151 µM); MIC (Escherichia coli EC-1): 32 µg/mL (≈ 80.5 µM); MIC [1]: > 64 µg/mL; MIC [2]: > 64 µg/mL; MIC (Klebsiella pneumoniae): 64 µg/mL (≈ 161 µM); IC50 [3]: 0.000286 µM; MIC (Enterobacter aerogenes): > 64 µg/mL

**Q.** For `Cc1cc(CNC(=O)C(C)(OCc2ccc(-c3ccc(-c4cc(CO)no4)cc3)cc2)C(=O)NO)no1` (centres unmarked) [Example 84, N-hydroxy-2-({4′-[3-(hydroxymethyl)isoxazol-5-yl]biphenyl-4-yl}methoxy)-2-methyl-N′-[(5-methylisoxazol-3-yl)methyl]malonamide], which MIC (P. aeruginosa UI-18) is on record?
**A.** 2 µg/mL (≈ 3.95 µM)

**Q.** What about the MIC (P. aeruginosa PAO280) of the same compound?
**A.** 0.06 µg/mL (≈ 0.118 µM)

**Q.** What about the MIC (Escherichia coli EC-1) of the same compound?
**A.** 1 µg/mL (≈ 1.97 µM)

**Q.** And the MIC [1]?
**A.** > 64 µg/mL

**Q.** And the MIC [2]?
**A.** > 64 µg/mL

**Q.** And the MIC (Klebsiella pneumoniae)?
**A.** 8 µg/mL (≈ 15.8 µM)

**Q.** And the IC50 [3]?
**A.** 0.000861 µM

**Q.** And the MIC (Enterobacter aerogenes)?
**A.** 16 µg/mL (≈ 31.6 µM)

**Q.** Which results are given for `C[C@@](OCc1ccc(-c2ccccc2)cc1)(C(=O)NO)[C@@H](O)c1cc(-c2ccccc2)on1` [Example 28, (2S,3S)-2-(biphenyl-4-ylmethoxy)-N,3-dihydroxy-2-methyl-3-(5-phenylisoxazol-3-yl)propanamide]?
**A.** MIC (P. aeruginosa UI-18): 8 µg/mL (≈ 18 µM); MIC (P. aeruginosa PAO280): 4 µg/mL (≈ 9 µM); MIC (Escherichia coli EC-1): 8 µg/mL (≈ 18 µM); MIC [1]: 8 µg/mL (≈ 18 µM); MIC [2]: 16 µg/mL (≈ 36 µM); MIC (Klebsiella pneumoniae): > 16 µg/mL; IC50 [3]: 0.00143 µM; MIC (Enterobacter aerogenes): > 16 µg/mL

**Q.** How did the MIC (P. aeruginosa UI-18) turn out when `C[C@@](OCc1ccc(-c2ccccc2)cc1)(C(=O)NO)[C@@H](O)c1ccn[nH]1` [Example 45, (2S,3S)-2-(biphenyl-4-ylmethoxy)-N,3-dihydroxy-2-methyl-3-(1H-pyrazol-3-yl)propanamide] was run?
**A.** 16 µg/mL (≈ 43.5 µM)

**Q.** What about the MIC (P. aeruginosa PAO280) of the same compound?
**A.** 0.25 µg/mL (≈ 0.68 µM)

**Q.** What about the MIC (Escherichia coli EC-1) of the same compound?
**A.** > 32 µg/mL

**Q.** And the MIC [1]?
**A.** > 32 µg/mL

**Q.** And the MIC [2]?
**A.** > 32 µg/mL

**Q.** What about the MIC (Klebsiella pneumoniae) of the same compound?
**A.** > 32 µg/mL

**Q.** What about the IC50 [3] of the same compound?
**A.** 0.00195 µM

**Q.** And the MIC (Enterobacter aerogenes)?
**A.** > 32 µg/mL

**Q.** `CC(OCc1ccc(-c2ccccc2)cc1)(C(=O)NO)C(=O)NCc1ccncn1` (centres unmarked) [Example 71, 2-(biphenyl-4-ylmethoxy)-N-hydroxy-2-methyl-N′-(pyrimidin-4-ylmethyl)malonamide] was tested. Which MIC (P. aeruginosa UI-18) did it give?
**A.** 16 µg/mL (≈ 39.4 µM)

**Q.** And the MIC (P. aeruginosa PAO280)?
**A.** 0.125 µg/mL (≈ 0.308 µM)

**Q.** And the MIC (Escherichia coli EC-1)?
**A.** 32 µg/mL (≈ 78.7 µM)

**Q.** What about the MIC [1] of the same compound?
**A.** > 64 µg/mL

**Q.** And the MIC [2]?
**A.** > 64 µg/mL

**Q.** What about the MIC (Klebsiella pneumoniae) of the same compound?
**A.** > 64 µg/mL

**Q.** What about the IC50 [3] of the same compound?
**A.** 0.00394 µM

**Q.** And the MIC (Enterobacter aerogenes)?
**A.** > 64 µg/mL

**Q.** `C[C@@](OCc1ccc(-c2ccc(-c3cnco3)cc2)cc1)(C(=O)NO)[C@@H](O)c1ccc(CO)o1` [Example 46, (2S,3S)-N,3-dihydroxy-3-[5-(hydroxymethyl)-2-furyl]-2-methyl-2-{[4′-(1,3-oxazol-5-yl)biphenyl-4-yl]methoxy}propanamide] was tested. Which MIC (P. aeruginosa UI-18) did it give?
**A.** 4 µg/mL (≈ 8.61 µM)

**Q.** And the MIC (P. aeruginosa PAO280)?
**A.** 0.25 µg/mL (≈ 0.538 µM)

**Q.** And the MIC (Escherichia coli EC-1)?
**A.** > 8 µg/mL

**Q.** What about the MIC [1] of the same compound?
**A.** > 8 µg/mL

**Q.** What about the MIC [2] of the same compound?
**A.** > 8 µg/mL

**Q.** What about the MIC (Klebsiella pneumoniae) of the same compound?
**A.** > 8 µg/mL

**Q.** What about the IC50 [3] of the same compound?
**A.** 0.000366 µM

**Q.** What about the MIC (Enterobacter aerogenes) of the same compound?
**A.** > 8 µg/mL

**Q.** What does the source list for `CC(CO)(OCc1ccc(-c2ccc(Cl)cc2)cc1)C(=O)NO` (centres unmarked) [Example 62, 2-[(4′-chlorobiphenyl-4-yl)methoxy]-N,3-dihydroxy-2-methylpropanamide]?
**A.** MIC (P. aeruginosa UI-18): 32 µg/mL (≈ 95.3 µM); MIC (P. aeruginosa PAO280): 1 µg/mL (≈ 2.98 µM); MIC (Escherichia coli EC-1): > 32 µg/mL; MIC [1]: > 32 µg/mL; MIC [2]: > 32 µg/mL; MIC (Klebsiella pneumoniae): > 32 µg/mL; IC50 [3]: 0.00417 µM; MIC (Enterobacter aerogenes): > 32 µg/mL

— US9340493B2, “Hydroxamic acid derivatives useful as antibacterial agents” (Pfizer Inc., priority 2008, dated 2016)
